IC50 data for 1 compound are collected here from patent US7547691B2, “[4-(Benzo[B]thiophen-2-yl) Pyrimidin-2-yl]-amine derivatives as IKK-beta inhibitors for the treatment of cancer and inflammatory diseases” (Eli Lilly and Company, priority 2005, dated 2009).

One test relates to HCT116 cells. As to the kind of experiment: Cell Viability Test, HCT116. Format: cell-based. As to conditions: HCT-116; HCT116 (human colon cancer cell line); 1 ng/mL TNFα, 0.5% DMSO, 48 hours; read-out: Cell Viability Inhibition IC50. The protocol:
(§1) RPMI 8226 cells (ATCC #CCL-155; human multiple myeloma cell line) are grown in RPMI 1640 medium (Gibco #11875-093) supplemented with 10% FBS (fetal bovine serum, Gibco #10082-147), 10 mM HEPES (Gibco #15630-080), 1 mM sodium pyruvate (Gibco #11360-070), and 4.5 mg/mL glucose. HCT116 cells (ATCC #CCL-247; human colon cancer cell line) are grown in McCoy's 5A modified medium (Gibco #16600-082) supplemented with 10% FBS (Gibco #10082-147). H460 cells (ATCC #HTB-177; human non-small cell lung cancer line) are grown in RPMI 1640 (Gibco #11875-093) supplemented with 10% FBS (Gibco #10082-147). […]
(§2) For compound testing, various cancer cells are seeded at 5,000 cells/well in 100 μl corresponding media specified above for each cell line in 96-well plates one day prior to treatment. […] Cell death in each well is determined by the addition of 15 μL of the One Solution Reagent (The CellTiter 96® AQueous One Solution Reagent, Promega #G3580). After 1-2 hours of incubation at 37° C., optical densities at 490 nm are measured with a microplate reader (Molecular Devices SpectraMax). Inhibition of cell viability is determined by comparison to the control cells treated in the absence of a test compound.

The test system of the next test is H460 cells. Put plainly: Cell Viability Test, H460. As to conditions: NCI-H460; H460 (human non-small cell lung cancer line); 1 ng/mL TNFα, 0.5% DMSO, 0.5 μg/mL cycloheximide, 48 hours; read-out: Cell Viability Inhibition IC50. The test is classed as cell-based. The protocol:
as §1, §2

The subject of the next test is RPMI 8226 cells. As to the kind of experiment: Cell Viability Test, RPMI-8226. Format: cell-based. As to conditions: RPMI-8226 (human multiple myeloma cell line); 1 ng/mL TNFα, 0.5% DMSO, 48 hours; read-out: Cell Viability Inhibition IC50. The protocol:
as §1, §2

A further test deals with U87MG cells. Put plainly: Cell Viability Test, U87MG. Format: cell-based. As to conditions: U-87 MG; U87MG (human glioblastoma cell line); 1 ng/mL TNFα, 0.5% DMSO, 48 hours; read-out: Cell Viability Inhibition IC50. How it is done:
as §1, §2

A further test relates to A2780 cells. As to the kind of experiment: Cell Viability Test, A2780. The test is classed as cell-based. As to conditions: A2780 (human ovarian carcinoma); 1 ng/mL TNFα, 0.5% DMSO, 48 hours; read-out: Cell Viability Inhibition IC50. The protocol: as §1, §2
The next test has as its target T1, IKKbeta (Homo sapiens, UniProt O14920).
T1 sequence (O14920 1-756): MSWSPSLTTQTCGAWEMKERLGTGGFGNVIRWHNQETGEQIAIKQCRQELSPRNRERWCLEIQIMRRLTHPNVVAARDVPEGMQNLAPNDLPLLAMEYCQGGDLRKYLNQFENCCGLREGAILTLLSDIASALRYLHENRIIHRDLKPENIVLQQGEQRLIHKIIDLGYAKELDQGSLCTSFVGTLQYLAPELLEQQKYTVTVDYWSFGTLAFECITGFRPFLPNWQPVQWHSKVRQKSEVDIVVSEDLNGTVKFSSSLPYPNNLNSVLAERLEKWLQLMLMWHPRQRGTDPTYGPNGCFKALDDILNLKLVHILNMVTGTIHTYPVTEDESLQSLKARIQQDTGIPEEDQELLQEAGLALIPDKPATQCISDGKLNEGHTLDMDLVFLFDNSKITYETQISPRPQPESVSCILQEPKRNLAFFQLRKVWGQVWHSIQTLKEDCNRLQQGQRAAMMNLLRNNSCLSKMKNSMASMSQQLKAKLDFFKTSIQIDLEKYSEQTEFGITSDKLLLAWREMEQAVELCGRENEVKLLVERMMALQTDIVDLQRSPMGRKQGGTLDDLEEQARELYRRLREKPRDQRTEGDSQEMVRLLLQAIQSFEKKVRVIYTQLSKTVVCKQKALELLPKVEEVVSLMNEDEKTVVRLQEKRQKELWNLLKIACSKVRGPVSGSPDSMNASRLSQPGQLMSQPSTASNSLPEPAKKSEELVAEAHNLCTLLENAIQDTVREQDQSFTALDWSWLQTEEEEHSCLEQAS
Put plainly: IKK-beta Kinase Assay. Format: biochemical. The settings on record: purified IKKβ 4 nM, 20 μM IKB peptide, 10 μM ATP, 90 minutes; absolute IC50; read-out: Enzyme Inhibition IC50. How it is done: The kinase activity of purified IKKβ is measured in vitro using a synthetic IKB peptide fragment (-[…]-) derived from IKB protein as a substrate. All reactions (30 μL) are started by the addition of the IKKb enzyme (final concentration: 4 nM) and then incubated at room temperature for 90 minutes in the reaction mix containing 20 μM IKB peptide, 10 μM ATP, 5 mM MgCl2, 50 mM Tris-HCl pH 7.5, 3 mM DTT, 4% DMSO, 1 mM Sodium Orthovandate, 0.5 mM β-glycerophosphate, 0.01% Triton X-100, 4 μCi γ-^33p-ATP/reaction. Reactions are terminated by addition of 30 μL 10% phosphoric acid, and the terminated reaction mix is filtered through a phosphocellulose membrane to remove unused γ-^33P-ATP. After four washes with 0.5% phosphoric acid, radio-labeled products bound to the filter are counted using a microbeta counter. All exemplified compounds are initially tested at 10 concentrations (20 μM down to 1 nM) using a 1:3 serial dilution scheme on the Beckman Tecan serial diluter. Calculation is done using a software package from IDBS (Activity Base) where an absolute IC50 value (non-linear regression) is calculated. Example 20 is specifically detailed below.

Each structure is given as a SMILES string. Counter-ions that a name gives are not always drawn.

As a reminder, the IC50 is the concentration that inhibits the measured activity by half. Turning to `CN1CCN(CCCNc2ncc(Cl)c(-c3cc4c(C(=O)NC5CC5)cccc4s3)n2)CC1` [Example 20, 2-{5-Chloro-2-[3-(4-methylpiperazin-1-yl)-propylamino]-pyrimidin-4-yl}-benzo[b]thiophene-4-carboxylic acid cyclopropylamide tri-hydrochloride], the IC50 with HCT116 cells came out at 19.2 µM; with H460 cells, 9 µM; with RPMI 8226 cells, 2.2 µM; with U87MG cells it was 22.3 µM; in the test on A2780 cells, 11.7 µM; at IKKbeta, 0.046 µM.
